Converted amounts (≈) assume the structure as drawn.
Experiments:
Format in all cases: cell-based
Aspergillus fumigatus = assay: Antifungal MIC, microtiter broth dilution; settings: Aspergillus fumigatus strain ATCC 26933; 35° C., 24-48 hours
Experimental: (§1) The antifungal activity for the hydroxyesters of 7-desmethylrapamycin of this invention was confirmed in a standard pharmacological test procedure which measured the ability of the compound being evaluated to inhibit fungal growth. 7-Desmethylrapamycin 42-ester with 3-hydroxy-2-(hydroxymethyl)-2-methylpropionic acid (Compound I) was evaluated as a representative compound of this invention. The procedure used and results obtained are briefly described below. A 96 U-bottom microtiter plate was filled (50 μl/well) with RPMI 1640. The compounds to be evaluated were placed in appropriate wells, and serial diluted in successive wells to provide 11 dilutions. The concentrations ranged from 64 through 0.06 μg/ml. An adjusted inoculum of fungi (50 μl) was added to each well and the plates were incubated at 35° C. for 24-48 hours. […] Nystatin and amphotericin B were used for the purpose of comparison.

Aspergillus niger = assay: Antifungal MIC, microtiter broth dilution; settings: 35° C., 24-48 hours
Experimental: as §1

Candida albicans = assay: Antifungal MIC, microtiter broth dilution; settings: 35° C., 24-48 hours
Experimental: as §1

Candida krussii = assay: Antifungal MIC, microtiter broth dilution; settings: Candida krussii strain 94-2; 35° C., 24-48 hours
Experimental: as §1

Candida lusitaniae = assay: Antifungal MIC, microtiter broth dilution; settings: Candida lusitaniae strain 94-3; 35° C., 24-48 hours
Experimental: as §1

Candida parapsilosis = assay: Antifungal MIC, microtiter broth dilution; settings: 35° C., 24-48 hours
Experimental: as §1

Candida pseudotropicalis = assay: Antifungal MIC, microtiter broth dilution; settings: Candida pseudotropicalis strain ATCC 28838; 35° C., 24-48 hours
Experimental: as §1

Candida rugosa = assay: Antifungal MIC, microtiter broth dilution; settings: Candida rugosa strain 94-10; 35° C., 24-48 hours
Experimental: as §1

Candida tropicalis = assay: Antifungal MIC, microtiter broth dilution; settings: 35° C., 24-48 hours
Experimental: as §1

[1] = tested on: U87MG human glioblastoma cells; assay: Inhibition of U87MG human glioblastoma cell growth (3H-thymidine incorporation); settings: 48 hours incubation
Experimental: The antineoplastic activity of the compounds of this invention were confirmed in a standard pharmacological test procedure which measures the inhibition of U87MG human glioblastoma cell growth (as a function of ^3H-thymidine incorporation), using 7-desmethylrapamycin 42-ester with 3-hydroxy-2-(hydroxymethyl)-2-methylpropionic acid (Compound I) as are presentative compound of this invention. The following briefly describes the procedure used and results obtained. U87MG human glioblastoma cells (ATCC # HTB-14; available from the American Type Culture Collection; 10801 University Boulevard; Manassas, Va. 20110;), were grown in the following media.
BRL Minimum Essential Medium with Earle Salts (500 mL)
+5 mL BRL MEM Non-Essential Amino Acids (10 mM)
+5 mL BRL Penicillin-Streptomycin (10000 u/mL, 10000 μg/mL)
+5 mL BRL Na Pyruvate Solution (100 mM)
+5 mL BRL L-Glutamine 200 mM
+50 mL BRL Fetal Bovine Serum (Qualified)
1. Cells were trypsinized and plated at a concentration of 10^4 cells/well in a final volume of 200 μL growth medium in 96-well flat bottom plates and allowed to adhere for 24 hours at 37° C.
2. The media was removed by aspiration with care to not disturb the cell monolayer. 200 μL of fresh growth media was added per well, allowing enough wells for samples to be run in triplicate. […]
4. […] Mats were counted in a Wallac Betaplate counter.

[2] = Candida albicans strain ATCC 90028
[3] = Candida parapsilosis strain 94-8
[4] = Candida parapsilosis strain 94-9
[5] = Candida parapsilosis strain ATCC 90018
[6] = Candida tropicalis strain 94-13
[7] = Candida tropicalis strain 94-14

SMILES | ANTIFUNGAL ACTIVITY (MIC) (Aspergillus fumigatus) [µg/mL] | ANTIFUNGAL ACTIVITY (MIC) (Aspergillus niger; Aspergillus niger strain S399) [µg/mL] | ANTIFUNGAL ACTIVITY (MIC) (Aspergillus niger; Aspergillus niger strain S430) [µg/mL] | ANTIFUNGAL ACTIVITY (MIC) (Candida albicans; Candida albicans strain 1063) | ANTIFUNGAL ACTIVITY (MIC) (Candida albicans; Candida albicans strain 1117) [µg/mL] | ANTIFUNGAL ACTIVITY (MIC) (Candida albicans; [2]) [µg/mL] | ANTIFUNGAL ACTIVITY (MIC) (Candida krussii) [µg/mL] | ANTIFUNGAL ACTIVITY (MIC) (Candida lusitaniae) | ANTIFUNGAL ACTIVITY (MIC) (Candida parapsilosis; [3]) | ANTIFUNGAL ACTIVITY (MIC) (Candida parapsilosis; [4]) [µg/mL] | ANTIFUNGAL ACTIVITY (MIC) (Candida parapsilosis; [5]) | ANTIFUNGAL ACTIVITY (MIC) (Candida pseudotropicalis) | ANTIFUNGAL ACTIVITY (MIC) (Candida rugosa) [µg/mL] | ANTIFUNGAL ACTIVITY (MIC) (Candida tropicalis; [6]) | ANTIFUNGAL ACTIVITY (MIC) (Candida tropicalis; [7]) | IC50 [1] [µg/mL]
C[C@@H]1[C@H](O)[C@@H](C)/C=C/C=C/C=C/C=C/C=C/C=C/C=C/[C@H](O[C@@H]2O[C@H](C)[C@@H](O)[C@H](N)[C@@H]2O)C[C@@H]2O[C@](O)(C[C@@H](O)C[C@@H](O)[C@H](O)CC[C@@H](O)C[C@@H](O)CC(=O)O[C@H]1C)C[C@H](O)[C@H]2C(=O)O [Amphotericin B, amphotericin B] | 0.25 | 0.50 | 0.25 | ≦0.06 μg/mL | 0.12 | 0.12 | 0.12 | ≦0.06 μg/mL | ≦0.06 μg/mL | 0.12 | ≦0.06 μg/mL | ≦0.06 μg/mL | 0.25 | ≦0.06 μg/mL | ≦0.06 μg/mL | 
CO[C@@H]1C[C@H](C[C@@H](C)[C@@H]2CC(=O)[C@H](C)/C=C(\C)[C@@H](O)[C@@H](OC)C(=O)[C@H](C)C[C@H](C)/C=C/C=C/C=C(\C)[C@@H](O)C[C@@H]3CC[C@@H](C)[C@@](O)(O3)C(=O)C(=O)N3CCCC[C@H]3C(=O)O2)CC[C@H]1OC(=O)C(C)(CO)CO [Compound I, 7-Desmethylrapamycin 42-ester with 3-hydroxy-2-(hydroxymethyl)-2-methylpropionic acid] | 64 | 64 | 64 | 1 µg/mL | 4 | 1 | 0.5 | 1 µg/mL | 2 µg/mL | 4 | 2 µg/mL | 2 µg/mL | 2 | 1 µg/mL | 1 µg/mL | 0.0065 (≈ 6.4 nM)
C[C@@H]1[C@H](O)[C@@H](C)/C=C/C=C/CC/C=C/C=C/C=C/C=C/C(O[C@H]2O[C@H](C)[C@@H](O)[C@H](N)[C@@H]2O)CC2O[C@](O)(CC(O)C(O)CCC(O)CC(O)CC(O)CC(=O)O[C@H]1C)CC(O)C2C(=O)O (stereo partly shown) [Nystatin] | 2 | 2 | 1 | 1 µg/mL | 1 | 1 | 1 | 1 µg/mL | 2 µg/mL | 1 | 2 µg/mL | 1 µg/mL | 1 | 1 µg/mL | 1 µg/mL | 

— patent US6399626B1, “Hydroxyesters of 7-desmethylrapamycin” (Wyeth, priority 2000, dated 2002)
